Measured values from ChEMBL document CHEMBL2074488, “Kinetic and selectivity differences between rodent, rabbit, and human organic cation transporters (OCT1)” (J Pharmacol Exp Ther, 2000).

Legend:
[1] = biological target: T1, Solute carrier family 22 member 1 (Homo sapiens, UniProt O15245); assay: (§1) TP_TRANSPORTER: inhibition of MPP+ uptake in Xenopus laevis oocytes; format: functional, cell-based, Oocyte
T1 sequence (O15245 whole entry): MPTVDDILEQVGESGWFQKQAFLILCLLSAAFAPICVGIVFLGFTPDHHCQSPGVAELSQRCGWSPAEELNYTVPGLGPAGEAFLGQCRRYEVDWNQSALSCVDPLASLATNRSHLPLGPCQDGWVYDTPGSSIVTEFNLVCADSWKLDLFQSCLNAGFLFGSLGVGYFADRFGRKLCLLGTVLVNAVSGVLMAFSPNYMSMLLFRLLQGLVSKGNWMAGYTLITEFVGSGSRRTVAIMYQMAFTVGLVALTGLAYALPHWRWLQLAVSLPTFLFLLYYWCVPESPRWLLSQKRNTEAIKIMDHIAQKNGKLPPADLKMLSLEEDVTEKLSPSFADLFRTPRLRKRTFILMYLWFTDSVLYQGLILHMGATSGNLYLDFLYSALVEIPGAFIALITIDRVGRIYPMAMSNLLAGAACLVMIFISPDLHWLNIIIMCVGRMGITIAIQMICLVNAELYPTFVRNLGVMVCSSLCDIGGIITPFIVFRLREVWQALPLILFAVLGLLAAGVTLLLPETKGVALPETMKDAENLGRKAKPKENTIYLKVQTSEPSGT

[2] = biological target: T2, Solute carrier family 22 member 1 (Mus musculus, UniProt O08966); assay: as §1; format: functional, cell-based, Oocyte
T2 sequence (O08966 whole entry): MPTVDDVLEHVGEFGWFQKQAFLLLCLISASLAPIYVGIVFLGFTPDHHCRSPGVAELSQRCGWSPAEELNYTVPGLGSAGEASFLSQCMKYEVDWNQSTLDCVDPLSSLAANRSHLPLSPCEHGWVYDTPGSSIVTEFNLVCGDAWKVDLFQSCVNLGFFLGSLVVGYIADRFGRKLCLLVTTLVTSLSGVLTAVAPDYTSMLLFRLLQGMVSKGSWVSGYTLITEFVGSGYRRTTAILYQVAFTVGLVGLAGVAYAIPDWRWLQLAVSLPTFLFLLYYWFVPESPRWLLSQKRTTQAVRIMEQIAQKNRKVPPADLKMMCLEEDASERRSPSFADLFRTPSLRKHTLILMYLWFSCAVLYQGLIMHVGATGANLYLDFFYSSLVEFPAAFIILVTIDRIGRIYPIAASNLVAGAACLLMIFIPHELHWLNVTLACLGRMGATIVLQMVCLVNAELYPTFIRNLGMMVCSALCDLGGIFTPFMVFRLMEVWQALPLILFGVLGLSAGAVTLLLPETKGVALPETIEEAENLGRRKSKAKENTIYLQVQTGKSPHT

[3] = biological target: T3, Solute carrier family 22 member 1 (Rattus norvegicus, UniProt Q63089); assay: as §1; format: functional, cell-based, Oocyte
T3 sequence (Q63089 whole entry): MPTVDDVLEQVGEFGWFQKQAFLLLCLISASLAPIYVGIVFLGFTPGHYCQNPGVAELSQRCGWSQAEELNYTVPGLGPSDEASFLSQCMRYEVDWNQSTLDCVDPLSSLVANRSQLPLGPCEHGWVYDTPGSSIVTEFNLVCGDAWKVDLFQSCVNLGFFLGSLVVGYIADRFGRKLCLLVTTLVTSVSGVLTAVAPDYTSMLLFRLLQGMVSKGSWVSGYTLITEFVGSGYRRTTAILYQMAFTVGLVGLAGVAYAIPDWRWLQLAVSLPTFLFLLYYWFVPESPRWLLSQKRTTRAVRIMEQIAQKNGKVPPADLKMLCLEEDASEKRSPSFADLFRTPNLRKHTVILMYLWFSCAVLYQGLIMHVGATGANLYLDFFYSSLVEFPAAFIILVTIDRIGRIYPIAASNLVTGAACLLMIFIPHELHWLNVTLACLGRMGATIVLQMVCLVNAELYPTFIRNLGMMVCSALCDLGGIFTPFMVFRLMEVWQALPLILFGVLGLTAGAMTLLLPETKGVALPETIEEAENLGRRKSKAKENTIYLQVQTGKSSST

[4] = biological target: T1, Solute carrier family 22 member 1; assay: (§2) TP_TRANSPORTER: trans-stimulation of MPP+ uptake (MPP+: 1 uM, TPeA: 200 uM) in Xenopus laevis oocytes; format: functional, cell-based; conditions: oocyte
[5] = biological target: T2, Solute carrier family 22 member 1; assay: as §2; format: functional, cell-based; conditions: oocyte
[6] = biological target: T3, Solute carrier family 22 member 1; assay: as §2; format: functional, cell-based; conditions: oocyte

| Compound | Ki [1] [µM] | Ki [2] [µM] | Ki [3] [µM] | Activity [4] | Activity [5] | Activity [6] |
| --- | --- | --- | --- | --- | --- | --- |
| CCCC[N+](CCCC)(CCCC)CCCC [TETRABUTHYLAMMONIUM] | 29.6 | 7.3 | 17 | – | – | – |
| C[N+](C)(C)C [TETRAMETHYLAMMONIUM] | 12400 | 2040 | – | – | – | – |
| CCCCC[N+](CCCCC)(CCCCC)CCCCC [TETRAPENTYLAMMONIUM] | – | – | – | is not an inhibitor [-] | inhibitor [trans-inhibited: (at a rough estimate) 30 % of control] | inhibitor [trans-inhibited: (at a rough estimate) 80 % of control] |
| CCC[N+](CCC)(CCC)CCC [TETRAPROPYLAMMONIUM] | 102 | 19.8 | 21 | – | – | – |
| CC[N+](CC)(CC)CC [TETRYLAMMONIUM] | 158 | 128 | 100 | – | – | – |
